According to the supplement of paper PMC10307832:

Tests used:
Test in all cases: relative viability (nuclei count vs DMSO), 5 days (fraction); higher = more cells survive
[1] = tested on: EMC-BAC-2
Method in brief: (§1)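 Relative viability divides the nuclei count in treated wells by that in vehicle wells. Lung cancer cell lines were seeded in 1536-well plates, dosed by pin tool the next day, and fixed and stained after 5 days in one step with final 0.05% Triton X-100, 1% formaldehyde and 1 ug/ml Hoechst. Dosing was a single drug or a fixed anchor-drug dose plus five library-drug doses (not always all listed) in √10 steps, and values are medians of duplicate plates imaged at 4×.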

[2] = tested on: NCI-H2228
Method in brief: as §1

[3] = tested on: NCI-H2009
Method in brief: as §1

[4] = tested on: NCI-H596
Method in brief: as §1

[5] = tested on: NCI-H3122
Method in brief: as §1

[6] = tested on: HCC-366
Method in brief: as §1

[7] = tested on: CAL-12T
Method in brief: as §1

[8] = tested on: HCC-78
Method in brief: as §1

[9] = tested on: NCI-H838
Method in brief: as §1

[10] = tested on: NCI-H1993
Method in brief: as §1

[11] = tested on: NCI-H1355
Method in brief: as §1

[12] = tested on: RERF-LC-KJ
Method in brief: as §1

[13] = tested on: NCI-H2085
Method in brief: as §1

[14] = tested on: SK-MES-1
Method in brief: as §1

[15] = tested on: PC-14
Method in brief: as §1

[16] = tested on: LC-2-ad
Method in brief: as §1

[17] = tested on: LK-2
Method in brief: as §1

[18] = tested on: SW 1573
Method in brief: as §1

[19] = tested on: NCI-H1734
Method in brief: as §1

[20] = tested on: HOP-62
Method in brief: as §1

[21] = tested on: NCI-H2405
Method in brief: as §1

[22] = tested on: ChaGo-K-1
Method in brief: as §1

[23] = tested on: NCI-H2347
Method in brief: as §1

Compound O=c1[nH]c2ccccc2n1C1CCN(CCCC(c2ccc(F)cc2)c2ccc(F)cc2)CC1 [Pimozide] + O=C(c1cc(Cc2n[nH]c(=O)c3ccccc23)ccc1F)N1CCN(C(=O)C2CC2)CC1 [Olaparib] (partner 8 µM) has a relative viability ([1]; first compound 0.08 µM) of 0.506, a relative viability ([1]; first compound 0.253 µM) of 0.463 and a relative viability ([1]; first compound 0.8 µM) of 0.455. For the same compound, the relative viability ([1]; first compound 2.53 µM) was 0.456, the relative viability ([1]; first compound 8 µM) was 0.448 and the relative viability ([2]; first compound 0.08 µM) was 0.759. It also gave a relative viability ([2]; first compound 0.253 µM) of 0.699, a relative viability ([2]; first compound 0.8 µM) of 0.555 and a relative viability ([2]; first compound 2.53 µM) of 0.45. The relative viability ([2]; first compound 8 µM) was 0.344, the relative viability ([3]; first compound 0.08 µM) was 0.761 and the relative viability ([3]; first compound 0.253 µM) was 0.649. It also gave a relative viability ([3]; first compound 0.8 µM) of 0.769, a relative viability ([3]; first compound 2.53 µM) of 0.683 and a relative viability ([3]; first compound 8 µM) of 0.629. The relative viability ([4]; first compound 0.08 µM) was 0.768, the relative viability ([4]; first compound 0.253 µM) was 0.755 and the relative viability ([4]; first compound 0.8 µM) was 0.663. It also gave a relative viability ([4]; first compound 2.53 µM) of 0.745, a relative viability ([4]; first compound 8 µM) of 0.779 and a relative viability ([5]; first compound 0.08 µM) of 0.529. For the same compound, the relative viability ([5]; first compound 0.253 µM) was 0.684, the relative viability ([5]; first compound 0.8 µM) was 0.66 and the relative viability ([5]; first compound 2.53 µM) was 0.637. The relative viability ([5]; first compound 8 µM) was 0.576, the relative viability ([6]; first compound 0.08 µM) was 0.355 and the relative viability ([6]; first compound 0.253 µM) was 0.332. The relative viability ([6]; first compound 0.8 µM) was 0.373, the relative viability ([6]; first compound 2.53 µM) was 0.323 and the relative viability ([6]; first compound 8 µM) was 0.334. For the same compound, the relative viability ([7]; first compound 0.08 µM) was 0.672, the relative viability ([7]; first compound 0.253 µM) was 0.687 and the relative viability ([7]; first compound 0.8 µM) was 0.709. It also gave a relative viability ([7]; first compound 2.53 µM) of 0.698, a relative viability ([7]; first compound 8 µM) of 0.623 and a relative viability ([8]; first compound 0.08 µM) of 0.832. For the same compound, the relative viability ([8]; first compound 0.8 µM) was 0.787, the relative viability ([8]; first compound 2.53 µM) was 0.709 and the relative viability ([8]; first compound 8 µM) was 0.749. For the same compound, the relative viability ([9]; first compound 0.08 µM) was 0.772, the relative viability ([9]; first compound 0.253 µM) was 0.757 and the relative viability ([9]; first compound 0.8 µM) was 0.729. For the same compound, the relative viability ([9]; first compound 2.53 µM) was 0.719, the relative viability ([9]; first compound 8 µM) was 0.744 and the relative viability ([10]; first compound 0.08 µM) was 0.95. For the same compound, the relative viability ([10]; first compound 0.253 µM) was 1.12, the relative viability ([10]; first compound 0.8 µM) was 0.918 and the relative viability ([10]; first compound 2.53 µM) was 1.05. It also gave a relative viability ([10]; first compound 8 µM) of 1.13, a relative viability ([11]; first compound 0.08 µM) of 0.717 and a relative viability ([11]; first compound 0.253 µM) of 0.677. The relative viability ([11]; first compound 0.8 µM) was 0.675, the relative viability ([11]; first compound 2.53 µM) was 0.758 and the relative viability ([11]; first compound 8 µM) was 0.689. It also gave a relative viability ([12]; first compound 0.08 µM) of 0.873, a relative viability ([12]; first compound 0.253 µM) of 0.823 and a relative viability ([12]; first compound 0.8 µM) of 0.838. For the same compound, the relative viability ([12]; first compound 2.53 µM) was 0.659, the relative viability ([12]; first compound 8 µM) was 0.648 and the relative viability ([13]; first compound 0.08 µM) was 0.691. It also gave a relative viability ([13]; first compound 0.253 µM) of 0.82, a relative viability ([13]; first compound 0.8 µM) of 0.767 and a relative viability ([13]; first compound 2.53 µM) of 0.783. It also gave a relative viability ([13]; first compound 8 µM) of 0.796, a relative viability ([14]; first compound 0.08 µM) of 0.715 and a relative viability ([14]; first compound 0.253 µM) of 0.686. For the same compound, the relative viability ([14]; first compound 0.8 µM) was 0.749, the relative viability ([14]; first compound 2.53 µM) was 0.697 and the relative viability ([14]; first compound 8 µM) was 0.619. For the same compound, the relative viability ([15]; first compound 0.253 µM) was 0.276, the relative viability ([15]; first compound 0.8 µM) was 0.225 and the relative viability ([15]; first compound 2.53 µM) was 0.215. It also gave a relative viability ([15]; first compound 8 µM) of 0.209, a relative viability ([16]; first compound 0.08 µM) of 0.68 and a relative viability ([16]; first compound 0.253 µM) of 0.731. For the same compound, the relative viability ([16]; first compound 0.8 µM) was 0.69, the relative viability ([16]; first compound 2.53 µM) was 0.668 and the relative viability ([16]; first compound 8 µM) was 0.673. It also gave a relative viability ([17]; first compound 0.08 µM) of 0.643, a relative viability ([17]; first compound 0.253 µM) of 0.687 and a relative viability ([17]; first compound 0.8 µM) of 0.765. The relative viability ([17]; first compound 2.53 µM) was 0.693, the relative viability ([17]; first compound 8 µM) was 0.691 and the relative viability ([18]; first compound 0.08 µM) was 0.457. The relative viability ([18]; first compound 0.253 µM) was 0.442, the relative viability ([18]; first compound 0.8 µM) was 0.448 and the relative viability ([18]; first compound 2.53 µM) was 0.38. It also gave a relative viability ([18]; first compound 8 µM) of 0.391, a relative viability ([19]; first compound 0.08 µM) of 0.645 and a relative viability ([19]; first compound 0.253 µM) of 0.563. The relative viability ([19]; first compound 0.8 µM) was 0.613, the relative viability ([19]; first compound 2.53 µM) was 0.636 and the relative viability ([19]; first compound 8 µM) was 0.637. It also gave a relative viability ([20]; first compound 0.08 µM) of 0.588, a relative viability ([20]; first compound 0.253 µM) of 0.342 and a relative viability ([20]; first compound 0.8 µM) of 0.356. For the same compound, the relative viability ([20]; first compound 2.53 µM) was 0.39, the relative viability ([20]; first compound 8 µM) was 0.56 and the relative viability ([21]; first compound 0.08 µM) was 0.833. The relative viability ([21]; first compound 0.253 µM) was 0.826, the relative viability ([21]; first compound 0.8 µM) was 0.822 and the relative viability ([21]; first compound 2.53 µM) was 0.722. For the same compound, the relative viability ([21]; first compound 8 µM) was 0.693, the relative viability ([22]; first compound 0.08 µM) was 0.402 and the relative viability ([22]; first compound 0.253 µM) was 0.365. For the same compound, the relative viability ([22]; first compound 0.8 µM) was 0.433, the relative viability ([22]; first compound 2.53 µM) was 0.467 and the relative viability ([22]; first compound 8 µM) was 0.413. It also gave a relative viability ([23]; first compound 0.08 µM) of 0.663, a relative viability ([23]; first compound 0.253 µM) of 0.556 and a relative viability ([23]; first compound 0.8 µM) of 0.577. It also gave a relative viability ([23]; first compound 2.53 µM) of 0.519 and a relative viability ([23]; first compound 8 µM) of 0.587.
